Values of other authors as cited in patent US9206466B2, “Compositions and methods for regulating peptidyltransferase activity and uses thereof” (University of Maryland, priority 2004, dated 2015).

Legend:
[1] = test system: −1 PRF; conditions: yeast; Dinman et al., 1997
[2] = test system: killer virus; conditions: yeast; Dinman et al., 1997

CSC[S@+]([O-])C[C@H](CO)NC(=O)/C=C/c1c(C)[nH]c(=O)[nH]c1=O [sparsomycin]
−1 PRF efficiencies [1]: promoted increased −1 PRF efficiencies | maintenance of the killer virus [2]: loss of the killer virus
